One experiment has as its system HBV DNA. Kind of experiment: HBV DNA assay (real-time qPCR of extracellular HBV DNA, HepG2.2.15 cells). Particulars: Hepatitis B virus, 144 h; Anti HBV DNA production activity in HepG2.2.15 cells, six days. The class given is cell-based. The procedure: The assay employs real-time qPCR (TaqMan) to directly measure extracellular HBV DNA copy number. HepG2.2.15 cells were plated in 96-well microtiter plates. Only the interior wells were utilized to reduce “edge effects” observed during cell culture, the exterior wells were filled with complete medium to help minimize sample evaporation. On the following day, the HepG2.2.15 cells were washed and the medium was replaced with complete medium containing various concentrations of a test compound in triplicate. 3TC was used as the positive control, while media alone was added to cells as a negative control (virus control, VC). Three days later, the culture medium was replaced with fresh medium containing the appropriately diluted drug. Six days following the initial administration of the test compound, the cell culture supernatant was collected, treated with pronase and then used in a real-time qPCR/TaqMan assay to determine HBV DNA copy numbers. Antiviral activity was calculated from the reduction in HBV DNA levels (IC50).
(Quantitative PCR measures a nucleic acid by following its amplification.)

The test system of experiment [1] is HBsAg. Kind of experiment: microbe, parasite or virus in culture. Particulars: Hepatitis B virus, HepG2.2.15.
Method: (§1) HepG2.2.15 cells (Acs et al. Proc Natl Acad Sci USA, 84, (1987), 4641-4), a constitutively HBV-expressing cell line were cultured in DMEM+Glutamax-I medium (Invitrogen, Carlsbad, Calif., USA), supplemented with 10% fetal bovine serum (Invitrogen) and G418 (Invitrogen) at a final concentration of 200 mg/L and maintained in 5% CO2 at 37° C.
(§2) HepG2.2.15 cells were seeded in duplicate into white, 96-well plates at 1.5×10^4 cells/well. The cells were treated with a three-fold serial dilution series of the compounds in DMSO. The final DMSO concentration in all wells was 1% and DMSO was used as no drug control.
(§3) The HBsAg chemiluminescence immunoassay (CLIA) kit (Autobio Diagnostics Co., Zhengzhou, China, Catalog number: CL0310-2) was used to measure the levels of secreted HBV antigens semi-quantitatively. For the detection 50 μL/well culture supernatant was used and HBsAg was quantified using HBsAg chemiluminescence immunoassay (CLIA) kit (Autobio Diagnostics Co., Zhengzhou, China, Catalog number: CL0310-2), 50 μL of the supernatant was transferred to the CLIA assay plate and 50 μL of enzyme conjugate reagent was added into each well. The plates were sealed and gently agitated for 1 hour at room temperature. The supernatant-enzyme-mixture was discarded and wells were washed 6 times with 300 μL of PBS. The residual liquid was removed by plating the CLIA plate right side down on absorbent tissue paper. 25 μL of substrates A and B were added to each well. Luminance was measured using a luminometer (Mithras LB 940 Multimode Microplate Reader) after 10 minutes incubation. Dose-response curves were generated and the IC50 value was extrapolated by using the E-WorkBook Suite (ID Business Solutions Ltd., Guildford, UK). The IC50 was defined as the compound concentration (or conditioned media log dilution) at which HBsAg secretion was reduced by 50% compared to the no drug control.
(§4) The compounds of the present invention were tested for their activity to inhibit HBsAg as described herein.
The subject of experiment [2] is HBsAg. Particulars: HBsAg secretion reduced by 50% vs no drug control, HepG2.2.15 cells.
Method: as §1, §2, §3, §4

The structures appear in SMILES notation. Like-named read-outs stand apart in the source and are kept apart here.

Broadly, the IC50 is the point on the concentration scale where inhibition reaches its midpoint. A lower IC50 goes with higher potency.

Consider `COCCCOc1cc2c(cc1Cl)-c1cc(=O)c(C(=O)O)cn1[C@@H]1CCCCC[C@H]21` (relative stereo) [Example 28, cis-13-chloro-12-(3-methoxypropoxy)-2-oxo-2,5a,6,7,8,9,10,10a-octahydrocyclohepta[c]pyrido[2,1-a]isoquinoline-3-carboxylic acid], for which the IC50 with HBV DNA was < 32 nM; with HBsAg [1], 3 nM.
For `COc1cc2c(cc1OCc1ccccc1)[C@H]1CCC(C)(C)[C@H]1n1cc(C(=O)O)c(=O)cc1-2` (relative stereo) [Example 3, Cis-11-(benzyloxy)-10-methoxy-3,3-dimethyl-7-oxo-1,2,3,3a,7,12b-hexahydrocyclopenta[c]pyrido[2,1-a]isoquinoline-6-carboxylic acid], the IC50 was determined as 40 nM with HBV DNA and 3 nM in the experiment on HBsAg [1].
On to `COc1cc2c(cc1OCC(C)C)[C@H]1CCC(C)(C)[C@H]1n1cc(C(=O)O)c(=O)cc1-2` (relative stereo) [Example 9, Cis-11-isobutoxy-10-methoxy-3,3-dimethyl-7-oxo-1,2,3,3a,7,12b-hexahydrocyclopenta[c]pyrido[2,1-a]isoquinoline-6-carboxylic acid], for which half-maximal inhibition in the experiment on HBsAg [1] (IC50) required 1 nM.
The same measure, in the same setting: the result for `COc1cc2c(cc1O)[C@H]1CCC(C)(C)[C@H]1n1cc(C(=O)O)c(=O)cc1-2` (relative stereo) [Example 6, Cis-11-hydroxy-10-methoxy-3,3-dimethyl-7-oxo-1,2,3,3a,7,12b-hexahydrocyclopenta[c]pyrido[2,1-a]isoquinoline-6-carboxylic acid] reads 84 nM; that for `COc1cc2c(cc1OCCCN1CCOCC1)[C@H]1CCC(C)(C)[C@H]1n1cc(C(=O)O)c(=O)cc1-2` (relative stereo) [Example 15, Cis-10-methoxy-3,3-dimethyl-11-(3-morpholinopropoxy)-7-oxo-1,2,3,3a,7,12b-hexahydrocyclopenta[c]pyrido[2,1-a]isoquinoline-6-carboxylic acid], 6 nM; that for `CCc1cc2c(cc1OC)-c1cc(=O)c(C(=O)O)cn1[C@H]1[C@@H]2CCC1(C)C` [Example 39], 20 nM.
Still for that read-out and setting: as for `COc1cc2c(cc1OC)[C@H]1CCC(C)(C)[C@H]1n1cc(C(=O)O)c(=O)cc1-2` (relative stereo) [Example 7, Cis-10,11-dimethoxy-3,3-dimethyl-7-oxo-1,2,3,3a,7,12b-hexahydrocyclopenta[c]pyrido[2,1-a]isoquinoline-6-carboxylic acid], the figure is 5 nM; as for `CCOC(=O)CCCOc1cc2c(cc1OC)-c1cc(=O)c(C(=O)O)cn1[C@H]1[C@@H]2CCC1(C)C` (relative stereo) [Example 18, Cis-11-(4-ethoxy-4-oxobutoxy)-10-methoxy-3,3-dimethyl-7-oxo-1,2,3,3a,7,12b-hexahydrocyclopenta[c]pyrido[2,1-a]isoquinoline-6-carboxylic acid], 10 nM; as for `COCCCOc1cc2c(cc1OC)-c1cc(=O)c(C(=O)O)cn1[C@@H]1CCSC[C@H]21` (racemic) [Example 36, cis-11-methoxy-12-(3-methoxypropoxy)-8-oxo-1,3,4,4a,8,13b-hexahydropyrido[2,1-a]thiopyrano[4,3-c]isoquinoline-7-carboxylic acid], 28 nM.
`COc1cc2c(cc1OCc1ccccc1)[C@H]1CCC(C)(C)[C@H]1n1cc(C(=O)O)c(=O)cc1-2` [Example 4, (3aS,12bR)-11-(benzyloxy)-10-methoxy-3,3-dimethyl-7-oxo-1,2,3,3a,7,12b-hexahydrocyclopenta[c]pyrido[2,1-a]isoquinoline-6-carboxylic acid]: in the experiment with HBsAg [2], the IC50 turned out to be 3 nM.
For `COc1cc2c(cc1OCc1ccccc1)[C@@H]1CCC(C)(C)[C@@H]1n1cc(C(=O)O)c(=O)cc1-2` [Example 5, (3aR,12bS)-11-(benzyloxy)-10-methoxy-3,3-dimethyl-7-oxo-1,2,3,3a,7,12b-hexahydrocyclopenta[c]pyrido[2,1-a]isoquinoline-6-carboxylic acid], in the experiment on HBsAg [1], the IC50 was found to be 308 nM.
Same read-out and setting: the result for `COc1cc2c(cc1OCCCCCCNC(C)=O)[C@H]1CCC(C)(C)[C@H]1n1cc(C(=O)O)c(=O)cc1-2` (relative stereo) [Example 25, Cis-11-((6-acetamidohexyl)oxy)-10-methoxy-3,3-dimethyl-7-oxo-1,2,3,3a,7,12b-hexahydrocyclopenta[c]pyrido[2,1-a]isoquinoline-6-carboxylic acid] reads 6 nM; that for `COc1cc2c(cc1OCC(C)(C)CO)[C@H]1CCC(C)(C)[C@H]1n1cc(C(=O)O)c(=O)cc1-2` (relative stereo) [Example 14, Cis-11-(3-hydroxy-2,2-dimethylpropoxy)-10-methoxy-3,3-dimethyl-7-oxo-1,2,3,3a,7,12b-hexahydrocyclopenta[c]pyrido[2,1-a]isoquinoline-6-carboxylic acid], 3 nM.
Regarding `CCCc1cc2c(cc1OC)-c1cc(=O)c(C(=O)O)cn1[C@H]1[C@@H]2CCC1(C)C` (relative stereo) [Example 40, Cis-10-methoxy-3,3-dimethyl-7-oxo-11-propyl-1,2,3,3a,7,12b-hexahydrocyclopenta[c]pyrido[2,1-a]isoquinoline-6-carboxylic acid], the 50% inhibitory concentration (IC50) in the experiment on HBsAg [1] was 19 nM.
The same measure, in the same setting: as for `COCCCOc1cc2c(cc1OC)-c1cc(=O)c(C(=O)O)cn1[C@@H]1CCSC[C@@H]21` (racemic) [Example 35, Trans-11-methoxy-12-(3-methoxypropoxy)-8-oxo-1,3,4,4a,8,13b-hexahydropyrido[2,1-a]thiopyrano[4,3-c]isoquinoline-7-carboxylic acid], the figure is 110 nM.
